In article PMC2893881 (Bioorganic & medicinal chemistry, 2010):
Like-named read-outs stand apart in the source and are kept apart here.

Assays:
rhodesain = rhodesain (Trypanosoma brucei rhodesiense, UniProt Q95PM0); test: Cysteine protease inhibition assay, rhodesain; assay type: biochemical; conditions: for IC50 (μM) Cysteine Protease rho (rhodesain): rhodesain 4 nM, Z-Phe-Arg-AMC 10 μM, pH 5.5
TbCatB = TbCatB (Trypanosoma brucei, UniProt Q6R7Z5); test: Cysteine protease inhibition assay, TbCatB; assay type: biochemical; conditions: TbCatB 258 nM, Z-Phe-Arg-AMC 10 μM, pH 5.5
[1] = tested on: Jurkat cells (clone E6-1); test: Jurkat cell cytotoxicity assay; assay type: cell-based; conditions: for Selectivity Index = (IC50 Jurkat) / (IC50 T. brucei): Jurkat vs T. brucei; for IC50: read-out: IC50 (μM) Jurkat
T. brucei brucei = test: Trypanosoma brucei brucei growth inhibition assay; assay type: cell-based; conditions: bloodstream forms clone 427-221a, 40 hours, ATP-bioluminescence, ± standard deviation of the mean
animals = conditions: cited from earlier work
patients = conditions: clinical use, second stage sleeping sickness; cited from earlier work
[2] = tested on: human lung carcinoma (A549) cells; conditions: at 1 μM; cited from earlier work
[3] = Jurkat cells, 40 hr, ATP-bioluminescence

| Molecule | IC50 (μM) Cysteine Protease rho (rhodesain) (rhodesain) | IC50 (μM) Jurkat [1, 3] | IC50 (μM) T. brucei (T. brucei brucei) | Selectivity Index = (IC50 Jurkat) / (IC50 T. brucei) [1] | further results |
| --- | --- | --- | --- | --- | --- |
| CS[C@]1(CO)C(=O)N2[C@H]3C(=CC=C[C@@H]3O)C[C@@]2(SC)C(=O)N1C [Compound 3, bis(methylthio)gliotoxin] | inactivity | not being toxic |  |  | IC50 (μM) Cysteine Protease Tbc (TbcatB) (TbCatB): inactivity |
| CS[C@]1(CO)C(=O)N2c3c(O)cccc3C[C@@]2(SC)C(=O)N1C [Compound 4, dehydrobis(methylthio)gliotoxin] | binds to rhodesain |  | trypanocidal in the low micromolar range | > 15 |  |
| CS[C@]1(CO)C(=O)N2[C@H]3C(=CC=C[C@@H]3OC(C)=O)C[C@@]2(SC)C(=O)N1C [Compound 7, 6-acetylbis(methylthio)gliotoxin] | binds to rhodesain |  | trypanocidal in the low micromolar range | > 15 |  |
| CS[C@]1(Cc2c[nH]c3ccccc23)NC(=O)[C@](CO)(SC)N(C)C1=O [Compound 8, chetoseminudin B] | inactivity |  |  |  | IC50 (μM) Cysteine Protease Tbc (TbcatB) (TbCatB): inactivity |
| CN1C(=O)[C@]23CC4=CC=C[C@H](O)[C@H]4N2C(=O)[C@@]1(CO)SS3 [Compound 10, gliotoxin, reference compound] |  | substantial toxicity to mammalian cells | nanomolar activity | low ^g (Toxic to Jurkat cells at <1 μM) | IC50 (μM) Cysteine Protease Tbc (TbcatB) (TbCatB): showed inhibition of TbCatB |
| CN1C(=O)[C@]23SS[C@@]1(C)C(=O)N2[C@H]1Nc2ccccc2[C@@]1([C@@]12c4ccccc4N[C@@H]1N1C(=O)[C@]4(CO)SS[C@]1(C(=O)N4C)[C@H]2O)[C@@H]3O [Compound 11, verticillin B] |  | substantial toxicity to mammalian cells | nanomolar activity | low (Toxic to Jurkat cells at <1 μM) |  |
| CN1C(=O)[C@@]23C[C@]4([C@]56C[C@@]78SS[C@@](CO)(C(=O)N7[C@H]5Nc5ccccc56)N(C)C8=O)c5ccccc5N[C@@H]4N2C(=O)[C@]1(CO)SS3 [Compound 12, chaetocin] |  | substantial toxicity to mammalian cells | nanomolar activity | low (Toxic to Jurkat cells at <1 μM) |  |
| COc1ccc2c3c4n(c2c1)[C@H](C=C(C)C)OOC(C)(C)C[C@@H]4N1C(=O)[C@@H]2CCCN2C(=O)[C@]1(O)[C@H]3O [Compound 17, verruculogen] |  |  |  |  | tremors in animals (animals): cause tremors in animals |
| COc1ccc2c3c([nH]c2c1)C(C=C(C)C)N1C(=O)C2CCCN2C(=O)C1(O)C3O (stereo not drawn) [Compound 20, 12,13-dihydroxyfumitremorgin C] | binds to rhodesain |  | trypanocidal in the low micromolar range | > 15 | IC50 (rhodesain): 10.9 µM; IC50 ([1]; Homo sapiens, Jurkat, 40 h): 97.2 µM |
| Nc1nc(N)nc(Nc2ccc([As]3SCC(CO)S3)cc2)n1 (stereo not drawn) [Compound 25, melarsoprol] |  |  |  |  | mortality rate (patients): approximately 5% |
| fumitremorgin B [Compound 19] |  |  |  | 5.3 | IC50 (T. brucei brucei; read-out: IC50 (μM) T. brucei): 19.5 ± 5.9 µM; IC50 [1, 3]: 104 µM; tremors in animals (animals): cause tremors in animals |
| phenylahistin [Compound 2a] |  |  |  |  | cell cycle inhibition activity [2]: cell cycle inhibition activity in the G2/M phase |
